According to ChEMBL document CHEMBL1938230, “6-Position optimization of tricyclic 4-quinolone-based inhibitors of glycogen synthase kinase-3β: discovery of nitrile derivatives with picomolar potency” (Bioorg Med Chem Lett, 2012):

Columns and labels:
Format in all cases: cell-free
[1] = target: T1, Phosphatidylinositol 5-phosphate 4-kinase type-2 beta (Homo sapiens) (UniProt P78356); experiment: Inhibition of human PIP4K2B in HL-60 cells lysate assessed as reduction of labeling of acyl-phosphate ATP probe at 100 nM
T1 sequence (whole entry): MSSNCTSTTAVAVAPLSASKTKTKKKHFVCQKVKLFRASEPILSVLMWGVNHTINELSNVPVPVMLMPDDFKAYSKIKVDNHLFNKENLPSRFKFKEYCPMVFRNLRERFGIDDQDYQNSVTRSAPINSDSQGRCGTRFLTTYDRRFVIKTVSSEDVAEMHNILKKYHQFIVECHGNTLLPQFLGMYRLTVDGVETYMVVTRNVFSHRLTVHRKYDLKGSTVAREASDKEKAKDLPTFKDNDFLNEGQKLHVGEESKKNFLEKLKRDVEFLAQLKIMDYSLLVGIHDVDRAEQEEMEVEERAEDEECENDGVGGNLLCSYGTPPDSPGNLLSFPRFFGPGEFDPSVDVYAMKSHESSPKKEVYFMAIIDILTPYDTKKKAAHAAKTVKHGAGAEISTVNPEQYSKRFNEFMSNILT

[2] = target: T2, Phosphatidylinositol 5-phosphate 4-kinase type-2 gamma (Homo sapiens) (UniProt Q8TBX8); experiment: Inhibition of human PIP4K2C in HL-60 cells lysate assessed as reduction of labeling of acyl-phosphate ATP probe at 100 nM
T2 sequence (whole entry): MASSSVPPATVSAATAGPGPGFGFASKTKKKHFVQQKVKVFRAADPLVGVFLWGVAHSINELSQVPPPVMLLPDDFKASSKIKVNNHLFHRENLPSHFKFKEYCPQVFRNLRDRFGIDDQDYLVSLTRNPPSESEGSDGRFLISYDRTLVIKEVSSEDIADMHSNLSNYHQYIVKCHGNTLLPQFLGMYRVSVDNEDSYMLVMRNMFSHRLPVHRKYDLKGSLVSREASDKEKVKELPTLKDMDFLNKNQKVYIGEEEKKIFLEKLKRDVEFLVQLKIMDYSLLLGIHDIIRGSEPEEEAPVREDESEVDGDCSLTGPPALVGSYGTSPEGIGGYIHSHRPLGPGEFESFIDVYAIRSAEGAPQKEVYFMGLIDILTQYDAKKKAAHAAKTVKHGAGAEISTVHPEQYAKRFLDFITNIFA

[3] = target: T3, Aurora kinase A (Homo sapiens) (UniProt O14965); experiment: Inhibition of human AurA in HL-60 cells lysate assessed as reduction of labeling of acyl-phosphate ATP probe at 100 nM
T3 sequence (whole entry): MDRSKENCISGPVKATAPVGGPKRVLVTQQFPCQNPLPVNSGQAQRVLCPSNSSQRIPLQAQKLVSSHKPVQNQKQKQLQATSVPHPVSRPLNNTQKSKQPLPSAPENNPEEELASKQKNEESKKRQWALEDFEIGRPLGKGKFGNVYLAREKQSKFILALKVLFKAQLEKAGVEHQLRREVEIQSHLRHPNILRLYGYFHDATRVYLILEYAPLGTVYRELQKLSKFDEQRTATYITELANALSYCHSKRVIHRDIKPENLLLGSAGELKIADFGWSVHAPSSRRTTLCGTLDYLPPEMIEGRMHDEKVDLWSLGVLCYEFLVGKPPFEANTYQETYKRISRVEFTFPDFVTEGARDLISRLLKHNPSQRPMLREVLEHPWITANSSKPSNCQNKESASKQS

[4] = target: T4, Dual specificity mitogen-activated protein kinase kinase 4 (Homo sapiens) (UniProt P45985); experiment: Inhibition of human MAP2K4 in HL-60 cells lysate assessed as reduction of labeling of acyl-phosphate ATP probe at 100 nM
T4 sequence (whole entry): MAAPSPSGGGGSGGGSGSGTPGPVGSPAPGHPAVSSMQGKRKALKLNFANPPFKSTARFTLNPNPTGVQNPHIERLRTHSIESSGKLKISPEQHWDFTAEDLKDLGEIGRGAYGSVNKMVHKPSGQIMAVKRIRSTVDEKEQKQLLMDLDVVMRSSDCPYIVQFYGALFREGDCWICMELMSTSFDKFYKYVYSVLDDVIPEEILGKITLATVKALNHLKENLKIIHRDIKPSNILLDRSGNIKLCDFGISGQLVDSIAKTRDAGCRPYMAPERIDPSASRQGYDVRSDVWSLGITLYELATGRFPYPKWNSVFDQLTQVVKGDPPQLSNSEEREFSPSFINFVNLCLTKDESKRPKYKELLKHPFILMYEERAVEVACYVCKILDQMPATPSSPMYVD

[5] = target: T5, Scaffold protein ILK (Homo sapiens) (UniProt Q13418); experiment: Inhibition of human ILK in HL-60 cells lysate assessed as reduction of labeling of acyl-phosphate ATP probe at 100 nM
T5 sequence (whole entry): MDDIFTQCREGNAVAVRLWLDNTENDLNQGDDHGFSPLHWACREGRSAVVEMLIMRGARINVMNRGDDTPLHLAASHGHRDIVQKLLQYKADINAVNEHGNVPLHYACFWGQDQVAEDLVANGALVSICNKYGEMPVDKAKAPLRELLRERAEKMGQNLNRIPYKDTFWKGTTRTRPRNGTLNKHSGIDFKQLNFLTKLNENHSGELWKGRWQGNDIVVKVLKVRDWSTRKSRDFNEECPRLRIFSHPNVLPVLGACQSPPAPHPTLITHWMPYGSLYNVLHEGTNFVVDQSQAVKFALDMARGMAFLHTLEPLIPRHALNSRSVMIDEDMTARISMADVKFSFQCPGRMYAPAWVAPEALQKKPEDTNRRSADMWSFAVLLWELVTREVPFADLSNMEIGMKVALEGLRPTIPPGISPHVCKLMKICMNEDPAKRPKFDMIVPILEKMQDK

[6] = target: T6, Interleukin-1 receptor-associated kinase 3 (Homo sapiens) (UniProt Q9Y616); experiment: Inhibition of human IRAK3 in HL-60 cells lysate assessed as reduction of labeling of acyl-phosphate ATP probe at 100 nM
T6 sequence (whole entry): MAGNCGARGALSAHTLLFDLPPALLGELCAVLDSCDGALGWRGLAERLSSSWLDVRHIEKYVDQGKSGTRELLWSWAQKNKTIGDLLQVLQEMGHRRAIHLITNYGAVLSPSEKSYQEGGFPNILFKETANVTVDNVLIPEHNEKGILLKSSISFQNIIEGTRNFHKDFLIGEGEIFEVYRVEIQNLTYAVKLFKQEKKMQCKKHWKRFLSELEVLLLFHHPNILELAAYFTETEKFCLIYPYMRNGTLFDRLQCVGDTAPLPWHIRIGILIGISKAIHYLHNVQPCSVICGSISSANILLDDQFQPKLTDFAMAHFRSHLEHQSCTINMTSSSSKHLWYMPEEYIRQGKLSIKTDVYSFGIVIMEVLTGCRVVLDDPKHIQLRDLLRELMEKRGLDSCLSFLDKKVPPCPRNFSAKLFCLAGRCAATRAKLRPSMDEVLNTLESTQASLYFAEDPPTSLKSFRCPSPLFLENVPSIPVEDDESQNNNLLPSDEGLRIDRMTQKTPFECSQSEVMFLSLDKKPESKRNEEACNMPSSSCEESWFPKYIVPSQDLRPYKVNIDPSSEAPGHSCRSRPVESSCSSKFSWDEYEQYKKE

Measured: inhibition

C[C@H]1COc2c(NCCCc3ccccn3)c(F)c(N)c3c(=O)c(C#N)cn1c23
< 35%: all assays above

C[C@H]1COc2c(NCCCc3ccccn3)c(F)c(N)c3c(=O)c(C(=O)O)cn1c23
< 35%: all assays above

C[C@H]1COc2c(NCCCn3cccn3)c(F)c(N)c3c(=O)c(C(=O)O)cn1c23
< 35%: all assays above

C[C@H]1COc2c(NCCCn3cccn3)c(F)c(N)c3c(=O)c(C#N)cn1c23
< 35%: all assays above
